The target in this test is T1, human GSK3β enzyme (Homo sapiens, UniProt P49841).
T1 construct: His6 (N); purchased Millipore 14-306; host or cells: baculovirus / Sf21 insect cells
As to the kind of experiment: In vitro GSK3β kinase assay (FRET, Z'-LYTE), Test (a). The class given is biochemical. The conditions noted are these: read-out: IC50 versus human GSK3β enzyme. An excerpt:
This biochemical assay used a Fluorescence Resonance Energy Transfer (FRET)-based, coupled-enzyme format to determine the ability of test compounds to inhibit substrate phosphorylation by recombinant GSK3β serine/threonine kinase (Kleman-Leyer, K. et al. Drug Disc. Devel. 2003, 6:81-2). The substrate used in this assay was Z′-LYTE™ ser/Thr 9 peptide and the FRET assay kit was obtained from Invitrogen (Paisley, UK, catalogue number PV3324). N-terminal His6-tagged recombinant human GSK313, with an H350 L mutation, was expressed in baculovirus in Sf21 insect cells, purified and obtained from Millipore (Billerica, Mass., USA, catalogue number 14-306 Human).
Test compounds were prepared as 10 mM stock solutions in dimethylsulphoxide (DMSO) and diluted in DMSO as required. Aliquots (2.5 μl) of compound dilutions were added to the wells of an Optiplate-F PerkinElmer 384-well plate (Massachusetts, USA, catalogue number 6007270). Control wells that produced a maximum signal corresponding to maximum enzyme activity were created by using 100% phosphorylated peptide obtained from Invitrogen (Paisley, UK, catalogue number PV3326). A 5 μl aliquot of 100% phosphorylated peptide (100 μM in 1.33× kinase buffer) was added to all maximum control wells. 2.5 μl of 4% DMSO solution (v/v) in 1.33× kinase buffer was added to maximum control wells. Control wells that produced a minimum signal corresponding to 100% inhibited enzyme were created by adding 2.5 μl of 40 μM Staurosporine in 1.33× kinase buffer containing 4% DMSO (v/v). A 5 μl mixture of GSK3β (100 ng/μl) enzyme and non-phosphorylated substrate (Z-LYTE™ ser/Thr 9 peptide, 100 μM) in a 1.33× kinase buffer solution was added to each well except maximum control wells and the assay plate centrifuged at 270 g for 1 minute. The kinase buffer used 1.33× was obtained from Invitrogen (Paisley, UK, catalogue number PV3189) and contained 67 mM HEPES (pH 7.5), 13 mM MgCl2, 1.3 mM EGTA, 0.01% BRIJ-35. Then 2.5 μl adenosine triphosphate (28 μM) in kinase buffer was added per well, centrifuged at 270 g for 1 minute and then the assay plate was shaken for 1 hour at room temperature. A proprietary development solution was prepared by adding 58 μl of development reagent A (Invitrogen, Paisley, UK, catalogue number PV3297) to 2142 μl of development reagent B (Invitrogen, Paisley, UK, catalogue number P3127). […]
The resultant signals arising from laser light excitation at 400 nm were read using a Perkin Elmer Envision spectrophotometer (Perkin Elmer, Massachusetts, USA). […] A ratiometric method, which calculates the ratio (the Emission Ratio) of donor emission to acceptor emission after excitation of the donor fluorophore at 400 nm, quantitates reaction progress, as shown in the equation below. […]

Where a name gives a salt, the structure may show the parent alone.

T1 sequence (P49841 whole entry): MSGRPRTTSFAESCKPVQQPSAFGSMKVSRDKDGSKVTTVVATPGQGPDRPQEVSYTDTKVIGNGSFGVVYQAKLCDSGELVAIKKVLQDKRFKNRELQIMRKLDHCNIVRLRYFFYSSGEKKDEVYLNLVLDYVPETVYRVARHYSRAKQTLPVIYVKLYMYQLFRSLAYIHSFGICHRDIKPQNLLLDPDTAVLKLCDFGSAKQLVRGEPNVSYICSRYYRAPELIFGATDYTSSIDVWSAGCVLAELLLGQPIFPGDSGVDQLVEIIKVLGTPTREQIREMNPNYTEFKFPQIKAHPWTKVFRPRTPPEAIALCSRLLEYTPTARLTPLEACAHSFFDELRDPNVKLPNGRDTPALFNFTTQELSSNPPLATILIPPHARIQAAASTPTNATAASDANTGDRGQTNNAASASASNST

The IC50 is the point on the concentration scale where inhibition reaches its midpoint. With `COCCCNCCCc1ccc(-c2cnc(N)c(C(=O)Nc3cccnc3)n2)cc1` [Example 1, 3-Amino-6-(4-{3-[(3-methoxypropyl)amino]propyl}phenyl)-N-pyridin-3-ylpyrazine-2-carboxamide tri-hydrochloride], the IC50 was approximately 35 nM.
